For data set [1], the system named is yeast-induced hyperthermia. Briefly: Antipyretic activity, yeast-induced hyperthermia test in rats. In kind it is in vivo, male Charles River rats. The settings on record: compared with NAPA, equimolar basis, oral. The procedure: (D)--Investigation of Antipyretic Activity in Rats
Using the conventional procedure for the yeast-induced hyperthermia test, several groups of 10 male Charles River rats were given a subcutaneous injection of dried yeast. Immediately after the injection they were then medicated orally with respectively:
100 mg/kg of N-acetyl-para-aminophenol (NAPA);
80 mg/kg of NAPA+43.0 mg/kg of Compound A; and
60 mg/kg of NAPA+86.0 mg/kg of Compound A.
In the mixtures the amount of Compound A, N-acetyl-para-aminophenyl N'-acetyl-D,L-methionate, used was in each case equimolar with the 10%, 20% or 40% reduction in the amount of NAPA, so that all the medications were carried out at a level equivalent to 100 mg/kg of NAPA.

Data set [2] has as its system Charles River (CD-1 COBS) albino mice. Put plainly: in vivo. The method, then: (E)--Investigation of Acute Oral Toxicity in Mice
Charles River (CD-1 COBS) albino mice, 20-22 g in weight, were kept for some days in an air-conditioned animal house and fed with a standard diet (sterile VAR granules). They were fasted overnight before experiment, with water ad libitum. 15 Male mice and 15 female mice were used for each experiment.
N-Acetyl-para-aminophenol (NAPA) and N-acetyl-para-aminophenyl N'-acetyl-D,L-methionate (Compound A) were then administered to the mice, orally, as a suspension (shaken continuously with an electromagnetic agitator) in 5% gum arabic at a volume of 0.02 ml/g, either individually or in variously proportioned mixtures and at different dose levels, as shown in Table VII below.
A control group received only the 5% gum arabic vehicle.

Data set [3] in a line: Hydrolysis stability in tris buffer. The class given is physicochemical. The procedure:
(§1) PREPARATION OF TRIS BUFFER
(§2) 0.05 M tris buffer was made by dissolving 6.05 grams of tris-(hydroxymethyl)-methylamine in 1000 ml. of water, and adjusting the pH to 7.2 by the addition of 0.1 M HCl.
(§3) Standard solutions of 1×10^-4 M Compound A in analytical grade methanol (0.01 ml) were prepared, and tested in the simulated gastric and intestinal fluids, in tris buffer alone, in tris buffer with added hog liver esterase and also in serum. The solutions under test were incorporated in 1 ml. of each of the test fluids. A temperature of 30° C. was used for the assays involving the hog liver esterase, whereas a temperature of 37° C. was used for the assays involving the simulated gastric and intestinal fluids and the serum. After this, the mixture was allowed to stand and the supernatant liquid was spotted onto silica t.l.c. plates and developed in 90:10 chloroform/methanol. The mixture was then extracted with 5 mls of chloroform and the chloroform-containing mixture was filtered through phase-separating papers, which allow only the chloroform solution to pass through. The chloroform solution was also spotted onto silica t.l.c. plates and developed in 90:10 chloroform/methanol.

A short description of data set [4]: Hydrolysis stability in human serum. In kind it is in vitro ADME. The settings on record: 37° C.; for half-life: human serum from two volunteers. The method, then:
The serum used in the assays was prepared by taking whole blood into plain tubes, incubating for one hour at 37° C., and then centrifuging at 2000 RPM for 10 minutes.
as §3

Data set [5] in a line: Hydrolysis stability in simulated gastric fluid. In kind it is physicochemical. The procedure: (§4) In order first to evaluate the stability of Compound A in the gastro-intestinal tract, simulated gastric and intestinal fluids and other test fluids were prepared as follows:
PREPARATION OF SIMULATED GASTRIC FLUID
0.35 gram of sodium chloride, 0.5 gram of glycine and 94 ml of M hydrochloric acid were mixed, and the volume was then made up to 1000 ml with distilled water. The pH of this system was about 1.79.
as §3

A short description of data set [6]: Hydrolysis stability in simulated intestinal fluid. In kind it is physicochemical. The procedure: as §4
PREPARATION OF SIMULATED INTESTINAL FLUID
6.1 grams of monobasic potassium phosphate and 3.9 grams of disodium hydrogen phosphate were dissolved in 1000 ml. of water. The pH of the resulting solution was 6.85.
as §3

The nature of a further data set: in vitro. The settings on record: pig, pH 7.2; tris buffer plus hog liver esterase, 30° C. In kind it is in vitro ADME, hog. The method, then: as §1, §2, §3
Another data set deals with hog liver esterase. Briefly: in vitro. The settings on record: 30° C. The class given is in vitro ADME. The procedure:
as §1, §2, §3

Data set [7] is described as follows: Serum "free NAPA" in beagle dogs. The class given is in vivo. The settings on record: oral. The procedure:
(B)--Investigation of Serum Concentrations in Beagle Dogs
6 Beagle dogs (3 males and 3 females) were dosed once a day (at 08.00 hrs. each day) for 23 days with Compound A, suspended in 1% gum tragacanth, which was administered orally by oesophageal tube, at a rate of either 432 mg/kg (2 dogs, 1 male and 1 female) or 675 mg/kg (4 dogs, 2 male and 2 female). During this period the dogs received their usual food and water until 16.00 hrs. on the day before the test; but from that time until 08.00 hrs. on the day of the test they were given no food, although they received their usual drinking water. The usual dosage of Compound A was however given to the animal at 08.00 hrs. on the day of the test.
Without any further feeding, serum samples were then taken from each animal 2, 4 and 6 hours after the oral administration of Compound A, thus at 10.00 hrs., 12.00 hrs. and 14.00 hrs. on the day of the test. After the 6-hour serum sample had been taken, the animals received their usual food for a while; but they were again made to fast for 12 hours from 20.00 hrs. on the day of the test until 08.00 hrs. on the following day, when the last, 24-hour serum sample was taken.
A direct determination similar to that used in Determination 2 above gave results for "free NAPA" as set out in Table IV below: […]

The nature of a further data set: in vivo. The settings on record: mouse, po.

On to `CSCCC(NC(C)=O)C(=O)Oc1ccc(NC(C)=O)cc1` (racemic) [Compound A, N-acetyl-para-aminophenyl N'-acetyl-D,L-methionate], for which, in data set [1], the antipyretic effect result is reported as “virtually identical upon an equimolar basis of comparison with that of the well-tried analgesic NAPA”. In addition, the behaviour / symptoms result in [2] (mouse, in vivo) was “hypothermia, tremor, tail extension, epistaxis and acrocyanosis, followed by death”. Besides, the “LD50 compared with NAPA” value in [2] (oral, mice) is given as “several times greater than that of the well-tried analgesic NAPA”. Moreover, the half-life was about 7.92 h in data set [3] (pH 7.2, tris buffer pH 7.2, 30° C.); 4 h in [3] (pH 7.2, tris buffer pH 7.2, 37° C.); 2.5 h in data set [4]; 2.33 h in [4] (human, serum, read-out: half-life); 40 h in [5] (pH 1.79, simulated gastric fluid, pH about 1.79, 37° C.); 31.5 h in data set [6] (simulated intestinal fluid, pH 6.85, 37° C.). Further, the half-life in the data set “in vitro” was about 7.92 h. Moreover, the “effect of human serum on the rate of hydrolysis” value in data set [4] is “increased the rate of hydrolysis”. The rate of hydrolysis result in data set [5] (simulated gastric juice, 37° C.) is “very slow”; in [6] (simulated intestinal juice, 37° C.) it was “very slow”. Moreover, the “effect of hog liver esterase on the rate of hydrolysis” value with hog liver esterase is recorded as “no effect on the rate of hydrolysis”. In addition, the hydrolysis in vivo entry in data set [7] (23 days) is given as “easily hydrolyzed”. For the same compound, in data set [7] (last dose after 23 days), the “recovery of "free NAPA" in serum, time” value is listed as “up to 6 hours”.
In “in vivo” (500 mg/kg, Serum "free NAPA"), `CC(=O)Nc1ccc(O)cc1` [NAPA, N-acetyl-para-aminophenol] had a concentration at 2 h of 97000 ng/mL and a concentration at 4 h of 32000 ng/mL. In “in vivo” (1073 mg/kg), this compound displayed a concentration at 4 h of 32000 ng/mL.

Source of the values: US4361703A, “Para-amino(or nitro)phenyl N-acetylaminothioalkanoates” (priority 1977, dated 1982).
